Results published in US8008299B2, “Urotensin II receptor antagonists” (Janssen Pharmaceutica, N.V., priority 2007, dated 2011).
pIC50, pKi: −log10 of the molar value. Where two headings read alike, the source gives them in different places.

Key:
[1] = biological target: T1, UT receptors in HSMM (Human Skeletal Muscle Myoblasts) (Homo sapiens, UniProt Q9UKP6); assay: Human Radioligand Binding Assay ((^125I)-U-II binding to intact HSMM)
T1 sequence (Q9UKP6 1-389): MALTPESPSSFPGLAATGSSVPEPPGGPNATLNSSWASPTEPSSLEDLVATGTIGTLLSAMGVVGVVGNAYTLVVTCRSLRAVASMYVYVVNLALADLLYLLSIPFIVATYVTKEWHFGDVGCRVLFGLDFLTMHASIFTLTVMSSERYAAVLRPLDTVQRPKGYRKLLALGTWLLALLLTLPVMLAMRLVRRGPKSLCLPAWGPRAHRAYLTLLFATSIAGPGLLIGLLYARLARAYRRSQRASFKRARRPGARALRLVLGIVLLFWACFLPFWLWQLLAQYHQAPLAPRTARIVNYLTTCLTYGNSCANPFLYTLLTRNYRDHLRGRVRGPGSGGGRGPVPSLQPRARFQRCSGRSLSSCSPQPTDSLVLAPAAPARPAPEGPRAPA

[2] = biological target: T2, Human UII (U-II receptor) in 6D9 human rhabdomyosarcoma cells (Homo sapiens, UniProt Q9UKP6); assay: Human UII Calcium Mobilization Assay; format: cell-based
T2 construct: 6D9: isolated by dilution subcloning of RMS13 cells, ATCC® Number: CRL-2061; host or cells: 6D9 human rhabdomyosarcoma cells (subclone of RMS13)
T2 sequence (Q9UKP6 1-389): T1 sequence (Q9UKP6 1-389)

[3] = biological target: T3, rat GPR14 (U-II receptor) (Rattus norvegicus, UniProt P49684); assay: Rat UII Calcium Mobilization FLIPR Assay; format: cell-based; conditions: CHO cells transfected with rat GPR14; antagonist activity after 5 min incubation vs agonist (Ac)-CFWK(2-NaI)C-NH2 at 1 nM
T3 construct: expressed in transfected cells
T3 sequence (P49684 1-386): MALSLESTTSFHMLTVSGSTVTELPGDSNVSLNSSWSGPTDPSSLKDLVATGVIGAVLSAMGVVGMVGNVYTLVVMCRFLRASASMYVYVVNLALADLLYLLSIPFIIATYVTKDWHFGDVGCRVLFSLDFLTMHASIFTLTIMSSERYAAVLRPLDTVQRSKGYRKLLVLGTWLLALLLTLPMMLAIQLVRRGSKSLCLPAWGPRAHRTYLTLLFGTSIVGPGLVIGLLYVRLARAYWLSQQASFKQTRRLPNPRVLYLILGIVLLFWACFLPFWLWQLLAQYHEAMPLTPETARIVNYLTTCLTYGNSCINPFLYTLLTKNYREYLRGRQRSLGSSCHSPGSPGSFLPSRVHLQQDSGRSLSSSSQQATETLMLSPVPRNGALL
Outline: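 Fluorescent calcium signals were recorded at room temperature (23° C) by FLIPR. Stable rat U-II receptor CHO lines had been dye-loaded for 1 h at 37° C in pH 7.4 HBSS containing 20 mM HEPES, 0.1% BSA and 2.5 mM probenecid.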

[4] = 6D9 human rhabdomyosarcoma cells, FLIPR TETRA, average, read-out: Human UII Ca+ Mobilization Average IC50
[5] = read-out: Human UII Average Binding Ki, intact HSMM, 0.150 nM (^125I)-U-II, 3 h, 25° C.

Row | pKi [1] | pIC50 [2, 4] | pIC50 [3] | Structure (SMILES) | pKi [1, 5] | pIC50 [2]
1 | < 6.52 | 5.44 | 6.84 | CCN1CCN(c2cccc3c2CN([C@H](CCCNC(N)=O)c2ccc(OC)c(OC)c2)C3=O)CC1 [Cpd 64, {(4R)-4-(3,4-dimethoxy-phenyl)-4-[4-(4-ethyl-piperazin-1-yl)-1-oxo-1,3-dihydro-isoindol-2-yl]-butyl}-urea] | – | –
2 | 7.08 | 6.07 | 7.64 | CCN1CCN(c2cccc3c2CN([C@H](CCCNC(=O)Nc2ccccc2)c2ccc(OC)c(OC)c2)C3=O)CC1 [Cpd 66, 1-{(4R)-4-(3,4-dimethoxy-phenyl)-4-[4-(4-ethyl-piperazin-1-yl)-1-oxo-1,3-dihydro-isoindol-2-yl]-butyl}-3-phenyl-urea] | – | –
3 | 7.37 | 6.06 | 7.30 | CCN1CCN(c2cccc3c2CN([C@H](CCCNC(=O)C(F)(F)F)c2ccc(OC)c(OC)c2)C3=O)CC1 [Cpd 67, N-{(4R)-4-(3,4-dimethoxy-phenyl)-4-[4-(4-ethyl-piperazin-1-yl)-1-oxo-1,3-dihydro-isoindol-2-yl]-butyl}-2,2,2-trifluoro-acetamide] | – | –
4 | < 6.52 | 5.69 | 6.75 | CCN(CC)CCC[C@H](c1ccc(OC)c(OC)c1)N1Cc2c(cccc2N2CCN(CC)CC2)C1=O [Cpd 68, 2-[(1R)-4-diethylamino-1-(3,4-dimethoxy-phenyl)-butyl]-4-(4-ethyl-piperazin-1-yl)-2,3-dihydro-isoindol-1-one] | – | –
5 | 6.70 | < 5.00 | 6.09 | CCNCCC[C@H](c1ccc(OC)c(OC)c1)N1Cc2c(cccc2N2CCN(CC)CC2)C1=O [Cpd 69, 2-[(1R)-1-(3,4-dimethoxy-phenyl)-4-ethylamino-butyl]-4-(4-ethyl-piperazin-1-yl)-2,3-dihydro-isoindol-1-one] | – | –
6 | 7.27 | 7.01 | 8.10 | CCN1CCN(c2cccc3c2CN([C@H](CCCNS(=O)(=O)N(C)C)c2ccc(OC)c(OC)c2)C3=O)CC1 [Cpd 70, dimethylaminosulfonic acid {(4R)-4-(3,4-dimethoxy-phenyl)-4-[4-(4-ethyl-piperazin-1-yl)-1-oxo-1,3-dihydro-isoindol-2-yl]-butyl}-amide] | – | –
7 | < 6.52 | 5.75 | 6.34 | CCN1CCN(c2cccc3c2CN([C@H](CCCNS(=O)(=O)O)c2ccc(OC)c(OC)c2)C3=O)CC1 [Cpd 71, {(4R)-4-(3,4-dimethoxy-phenyl)-4-[4-(4-ethyl-piperazin-1-yl)-1-oxo-1,3-dihydro-isoindol-2-yl]-butyl}-sulfamic acid] | – | –
8 | 7.28 | 6.75 | 7.59 | CCN1CCN(c2cccc3c2CN([C@H](CCCN(Cc2ccccc2)Cc2ccccc2)c2ccc(OC)c(OC)c2)C3=O)CC1 [Cpd 73, 2-[(1R)-4-dibenzylamino-1-(3,4-dimethoxy-phenyl)-butyl]-4-(4-ethyl-piperazin-1-yl)-2,3-dihydro-isoindol-1-one] | – | –
9 | 7.72 | 6.84 | 8.30 | CCN1CCN(c2cccc3c2CN([C@H](CCCOCc2ccccc2)c2ccc(OC)c(OC)c2)C3=O)CC1 [Cpd 74, 2-[(1R)-4-benzyloxy-1-(3,4-dimethoxy-phenyl)-butyl]-4-(4-ethyl-piperazin-1-yl)-2,3-dihydro-isoindol-1-one] | – | –
10 | 6.62 | 5.59 | 7.43 | CCN1CCN(c2cccc3c2CN([C@H](CCCNCC(C)(C)C)c2ccc(OC)c(OC)c2)C3=O)CC1 [Cpd 75, 2-[(1R)-1-(3,4-dimethoxy-phenyl)-4-(2,2-dimethyl-propylamino)-butyl]-4-(4-ethyl-piperazin-1-yl)-2,3-dihydro-isoindol-1-one] | – | –
11 | 7.48 | 6.17 | 7.34 | CCN1CCN(c2cccc3c2CN([C@H](CCCNc2c(N)c(=O)c2=O)c2ccc(OC)c(OC)c2)C3=O)CC1 [Cpd 76, 3-amino-4-{(4R)-4-(3,4-dimethoxy-phenyl)-4-[4-(4-ethyl-piperazin-1-yl)-1-oxo-1,3-dihydro-isoindol-2-yl]-butylamino}-cyclobut-3-ene-1,2-dione] | – | –
12 | 7.59 | 7.33 | 8.30 | CCN1CCN(c2cccc3c2CN([C@H](CCCNCc2ccccc2)c2ccc(OC)c(OC)c2)C3=O)CC1 [Cpd 77, 2-[(1R)-4-benzylamino-1-(3,4-dimethoxy-phenyl)-butyl]-4-(4-ethyl-piperazin-1-yl)-2,3-dihydro-isoindol-1-one] | – | –
13 | 7.70 | 6.40 | 7.82 | CCN1CCN(c2cccc3c2CN([C@H](CCCNC(=O)c2ccco2)c2ccc(OC)c(OC)c2)C3=O)CC1 [Cpd 78, furan-2-carboxylic acid {(4R)-4-(3,4-dimethoxy-phenyl)-4-[4-(4-ethyl-piperazin-1-yl)-1-oxo-1,3-dihydro-isoindol-2-yl]-butyl}-amide] | – | –
14 | 7.41 | 6.88 | 8.22 | CCN1CCN(c2cccc3c2CN([C@H](CCCNC(=O)c2cn[nH]c2)c2ccc(OC)c(OC)c2)C3=O)CC1 [Cpd 79, 1H-pyrazole-4-carboxylic acid {(4R)-4-(3,4-dimethoxy-phenyl)-4-[4-(4-ethyl-piperazin-1-yl)-1-oxo-1,3-dihydro-isoindol-2-yl]-butyl}-amide] | – | –
15 | 7.74 | 6.51 | 7.68 | CCN1CCN(c2cccc3c2CN([C@H](CCCNC(=O)C2CCC2)c2ccc(OC)c(OC)c2)C3=O)CC1 [Cpd 80, cyclobutanecarboxylic acid {(4R)-4-(3,4-dimethoxy-phenyl)-4-[4-(4-ethyl-piperazin-1-yl)-1-oxo-1,3-dihydro-isoindol-2-yl]-butyl}-amide] | – | –
16 | 7.60 | 7.29 | 7.64 | CCN1CCN(c2cccc3c2CN([C@H](CCCNS(=O)(=O)c2cn(C)c(C)n2)c2ccc(OC)c(OC)c2)C3=O)CC1 [Cpd 82, 1,2-dimethyl-1H-imidazole-4-sulfonic acid {(4R)-4-(3,4-dimethoxy-phenyl)-4-[4-(4-ethyl-piperazin-1-yl)-1-oxo-1,3-dihydro-isoindol-2-yl]-butyl}-amide] | – | –

Row | Structure (SMILES) | pKi [1] | pIC50 [2, 4] | pIC50 [3] | pKi [1, 5] | pIC50 [2]
17 | COc1ccc([C@@H](CCCNS(=O)(=O)c2cccs2)N2Cc3c(cccc3N3CCN(C(C)C)CC3)C2=O)cc1OC [Cpd 65, thiophene-2-sulfonic acid {(4R)-4-(3,4-dimethoxy-phenyl)-4-[4-(4-isopropyl-piperazin-1-yl)-1-oxo-1,3-dihydro-isoindol-2-yl]-butyl}-amide] | – | 7.28 | 8.52 | 8.40 | –
18 | CCN1CCN(c2cccc3c2CN([C@H](CCCNCc2cccs2)c2ccc(OC)c(OC)c2)C3=O)CC1 [Cpd 72, 2-{(1R)-1-(3,4-dimethoxy-phenyl)-4-[(thiophen-2-ylmethyl)-amino]-butyl}-4-(4-ethyl-piperazin-1-yl)-2,3-dihydro-isoindol-1-one] | – | 7.23 | 8.22 | 7.74 | –
19 | CCN1CCN(c2cccc3c2CN([C@H](CCCNC(=O)c2cccs2)c2ccc(OC)c(OC)c2)C3=O)CC1 [Cpd 81, thiophene-2-carboxylic acid {(4R)-4-(3,4-dimethoxy-phenyl)-4-[4-(4-ethyl-piperazin-1-yl)-1-oxo-1,3-dihydro-isoindol-2-yl]-butyl}-amide] | – | – | 8.15 | 7.74 | 6.86
